Measurements published in patent publication US8367829B2, “Bi-functional pyrazolopyridine compounds” (Gilead Sciences, Inc., priority 2010, dated 2013).

Columns and labels:
[1] = target: T1, human recombinant beta-2 adrenoreceptors (Homo sapiens, UniProt P07550); assay: Beta-2 adrenoceptor binding assay, displacement of [3H](−)CGP-12177; conditions: CHO cells expressing human beta-2 adrenoreceptors, [3H](−)CGP-12177 0.3 nM, 120 min
T1 construct: expressed in transfected cells; host or cells: CHO cells
Experimental: Beta-2 Adrenoceptor Binding Assay
Test compounds were incubated for 120 min with Chinese hamster oocyte (CHO) cells expressing the human recombinant beta-2 adrenoreceptors. Binding of test compounds to the beta-2 adrenoreceptors was determined by measuring the displacement of the radiolabeled ligand [^3H](−)CGP-12177 (0.3 nM) from the receptor measured by a scintillation counting. Concentration response curves were generated for test compounds and the IC50 (molar concentration of the compound which produced 50% inhibition for the maximal response for that compound) was determined. These assays were performed using a protocol based on the original description of the assay by Joseph et al., (2004) Naun.-Sch. Arch. Pharm.; 369:525-532.
IC50 determinations for the compounds presented above are seen in the second column of Table 1 (Beta 2 IC50).

[2] = system: LPS-induced TNF-α release from human peripheral blood mononuclear cells (PBMC); assay: Inhibition of LPS-induced TNF-α release from human PBMC; format: cell-based; conditions: LPS 0.4 ng/mL, 6 h, presence or absence of ICI-118551 not given
Description: Inhibition of Lipopolysaccharide (LPS)-Induced Tumour Necrosis Factor Alpha (TNF-α) Release from Human Peripheral Blood Mononuclear Cells (PBMC)
Human whole blood was drawn from donors and cell purification initiated within two hours. Peripheral blood mononuclear cells (PBMC) were purified using a standard Ficoll gradient purification technique and aliquoted at a concentration of 100,000 cells/well in 96 well plates. Beta-2 adrenoreceptor agonists are also anti-inflammatory for some immune cells expressing the receptor and in this assay they can inhibit tumor necrosis factor-alpha (TNF-α) production. Therefore PBMC were pre-incubated for 30 min in the presence of the beta-2 adrenoreceptor antagonist ICI-118551 (3-(isopropylamino)-1-[(7-methyl-4-indanyl)oxy]butan-2-ol) (10 μM) to determine the PDE4 directed activity of test compounds, and in the absence of ICI-118551 for the combined PDE4 and beta-2 receptor directed activity. Test compounds were dissolved in DMSO and diluted in buffer (final DMSO concentration of 0.1% v/v) and were then added to the cell suspensions and pre-incubated for a further 1 h at 37° C. LPS solution was then added (0.4 ng/mL) and the cells incubated for a further 6 h. At the end of the incubation period the cell supernatants were collected and TNF-α was measured using a Procarta Cytokine Assay Kit (Affymetrix, Santa Clara, Calif.) according to the manufacturers' instructions. Data were analyzed using MiraiBio Masterplex QT v4.0 software (MasterPlex Version 1.0.1.18 Copyright 2008, Hitachi Software Engineering Co., Ltd) and used to extrapolate Mean Fluorescence Intensity (MFI) into concentrations of TNF-α and mean values from replicate wells were determined. Inhibition curves were plotted using a nonlinear curve fit employing a single-site binding model to determine the IC50 value for each test compound in the presence or absence of ICI-118551 using GraphPad Prism 5 for Windows, version 5.02 (GraphPad Software, San Diego Calif.).
EC50 determinations for the compounds presented above are seen in the fourth column of Table 1 (PBMC TNF EC50).

Human recombinant PDE4B2 = target: T2, Human recombinant PDE4B2 (Homo sapiens, UniProt Q07343); assay: Inhibition of PDE4B2 enzyme activity (PDE Glo Assay); format: biochemical; conditions: human recombinant PDE4B2, 50 nM cAMP; read-out: PDE4 IC50
T2 construct: purchased BPS Bioscience
Experimental: Inhibition of PDE4B4 Enzyme Activity
The inhibitory activity of test compounds were determined using the PDE Glo Assay (Promega, V1361). The PDE-Glo Reaction Buffer was prepared (1 mL 5× buffer+4 mL water) and 150 nM solution of test compound dissolved in the Reaction Buffer, followed by 1:3 serial dilutions into Reaction Buffer. […] Human recombinant PDE4B2 (BPS Bioscience) was added to test compound in Reaction Buffer at a concentration of 0.12 nM per reaction. The enzyme and test compound were pre-incubated together at rt for 10 min. 50 nM of the enzyme substrate cAMP was then added to initiate the enzyme reaction, with the reaction terminated after one hour. Termination Buffer (1 mL 5× termination buffer+3.9 mL water+100 μL of 100 mM IBMX (ICN Chemicals, in DMSO)), was added to each reaction well to terminate the reaction. Detection Buffer (1 mL 5×PDE-Glo Detection buffer+3.96 mL water+40 μL PKA (supplied in kit)) was added to the cAMP-enzyme-test compound mix and this secondary reaction proceeded for 20 minutes at rt. An equal volume of Kinase Glo Reagent was then added to the reaction mixture and after 10 min luminescence was measured using a luminometer (EnVision, 0.1 sec read for luminescence). Luminescence values were […] related to levels of cAMP in the reaction mixture. Data were plotted as relative light units (RLU) versus test compound concentration and the IC50 determined using GraphPad Prism 5.0, using a nonlinear curve fit in a single-site binding model.
IC50 determinations for the compounds presented above are seen in the first column of Table 1 (PDE4 IC50).

[3] = target: T1, human recombinant beta-2 adrenoreceptors; assay: Functional agonism of human recombinant beta-2 adrenoreceptors expressed in CHO cells (cAMP, HTRF); format: cell-based; conditions: cAMP elevation, 30 min
Experimental: Functional Agonism of Human Recombinant Beta-2 Adrenoreceptors Expressed in Chinese Hamster Oocytes (CHO)
Test compounds were incubated for 30 min with CHO cells expressing the human recombinant beta-2 adrenoreceptors. Agonism of the receptor was measured by the elevation of intracellular cyclic-AMP over control levels detected using a homogeneous time resolved fluorescence (HTRF) format. Compounds were determined to be “full” or “partial” agonists based on the maximum level of cAMP accumulated compared to the control compound isoproterenol which is a full agonist in this assay system. Concentration response curves were generated for test compounds and the EC50 (molar concentration of the agonist which produced 50% of the maximal response for that compound) was determined. These assays were performed using a protocol based on the original description of the assay by Baker, J. G. (2005) Brit. J. Pharmacol.; 144:317-322.
EC50 determinations for the compounds presented above are seen in the third column of Table 1 (Beta 2 EC50).

T1 sequence (P07550 whole entry): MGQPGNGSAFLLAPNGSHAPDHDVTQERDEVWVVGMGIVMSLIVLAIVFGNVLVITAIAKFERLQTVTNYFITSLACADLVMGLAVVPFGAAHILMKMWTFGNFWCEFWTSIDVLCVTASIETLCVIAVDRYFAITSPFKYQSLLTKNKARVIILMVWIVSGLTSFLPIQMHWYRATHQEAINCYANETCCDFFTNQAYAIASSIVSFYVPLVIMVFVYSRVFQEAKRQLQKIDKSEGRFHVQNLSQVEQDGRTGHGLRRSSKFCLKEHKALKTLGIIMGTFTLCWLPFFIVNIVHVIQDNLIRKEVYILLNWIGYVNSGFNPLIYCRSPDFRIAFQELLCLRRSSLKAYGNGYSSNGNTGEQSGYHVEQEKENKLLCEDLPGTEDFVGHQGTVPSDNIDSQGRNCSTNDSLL
T2 sequence (Q07343 1-564 isoform Q07343-2): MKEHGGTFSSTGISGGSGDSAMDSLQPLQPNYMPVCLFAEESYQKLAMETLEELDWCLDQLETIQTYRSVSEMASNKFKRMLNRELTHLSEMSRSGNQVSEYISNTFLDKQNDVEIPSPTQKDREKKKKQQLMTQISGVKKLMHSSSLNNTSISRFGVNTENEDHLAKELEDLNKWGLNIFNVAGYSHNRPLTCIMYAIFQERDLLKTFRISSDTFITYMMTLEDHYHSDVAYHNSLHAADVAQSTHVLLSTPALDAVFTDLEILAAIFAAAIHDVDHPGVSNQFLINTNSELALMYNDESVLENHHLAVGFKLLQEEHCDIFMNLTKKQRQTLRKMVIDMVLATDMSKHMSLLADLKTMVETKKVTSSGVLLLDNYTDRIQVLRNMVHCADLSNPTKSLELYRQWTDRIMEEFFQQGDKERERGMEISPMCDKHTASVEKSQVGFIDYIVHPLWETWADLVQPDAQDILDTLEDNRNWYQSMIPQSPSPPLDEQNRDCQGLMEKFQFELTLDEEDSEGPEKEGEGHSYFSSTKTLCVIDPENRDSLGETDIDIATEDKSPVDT

Structure (SMILES) | IC50 [1] [nM] | EC50 [2] [nM] | IC50 (Human recombinant PDE4B2) [nM] | EC50 [3] [nM]
CCc1nc2c(cnn2CC)c(NC2CCOCC2)c1CNC(=O)c1cccc(CNC[C@H](O)c2ccc(O)c3[nH]c(=O)ccc23)c1 [Example 5, (R)—N-[[1,6-Diethyl-4-[(tetrahydro-2H-pyran-4-yl)amino]-1H-pyrazolo[3,4-b]pyridin-5-yl]methyl]-3-[[[2-hydroxy-2-(8-hydroxy-2-oxo-1,2-dihydroquinolin-5-yl)ethyl]amino]methyl]benzamide] | < 300 | < 100 | < 100 | < 100
CCc1nc2c(cnn2CC)c(NC2CCOCC2)c1CNC(=O)c1cccc(CC(C)(C)NC[C@H](O)c2ccc(O)c3[nH]c(=O)ccc23)c1 [Example 4, (R)—N-[[1,6-Diethyl-4-[(tetrahydro-2H-pyran-4-yl)amino]-1H-pyrazolo[3,4-b]pyridin-5-yl]methyl]-3-[2-[[2-hydroxy-2-(8-hydroxy-2-oxo-1,2-dihydroquinolin-5-yl)ethyl]-amino]-2-methylpropyl]benzamide] | < 100 | < 100 | < 100 | < 100
